Experimental data from patent US5545653A (priority 1995, dated 1996).
In brackets after ≈: the same amount, converted by molar mass.

Columns and labels:
Format in all cases: cell-based
RhV-14 (Rhinovirus) = test: microbe, parasite or virus in culture; details: Enterovirus; 120 hours at 32° C.; read-out: IC50 (50 percent inhibition of plaque formation), RhV-14
PV-1 (poliovirus) = test: microbe, parasite or virus in culture; details: Enterovirus C, 72 h, read-out: IC50 (50 percent inhibition of plaque formation), PV-1
CS-21C (Coxsackie virus) = test: organism not typed; details: 72 hours at 37° C.; read-out: IC50 (50 percent inhibition of plaque formation), CS-21C

Molecule `CC(C)S(=O)(=O)n1c(N)nc2ccc(C(=O)c3ccc(OC(F)(F)F)cc3)cc21` [Example 6] has an IC50 (RhV-14 (Rhinovirus)) of 0.329 mg/L (≈ 0.77 µM).
With `CC(C)S(=O)(=O)n1c(N)nc2ccc(C(=O)c3cc(F)ccc3F)cc21` [Example 20] the IC50 (PV-1 (poliovirus)) was 0.19 mg/L (≈ 0.501 µM) and the IC50 (RhV-14 (Rhinovirus)) was 1.32 mg/L (≈ 3.48 µM).
For `CC(C)S(=O)(=O)n1c(N)nc2ccc(C(=O)c3cccc(F)c3)cc21` [Example 3], the IC50 (RhV-14 (Rhinovirus)) was 2.14 mg/L (≈ 5.92 µM).
`CC(C)S(=O)(=O)n1c(N)nc2ccc(C(=O)c3cc(F)cc(F)c3)cc21` [Example 5] showed an IC50 (RhV-14 (Rhinovirus)) of 3.9 mg/L (≈ 10.3 µM).
For `CC(C)S(=O)(=O)n1c(N)nc2ccc(C(=O)c3ccccc3F)cc21` [Example 11], the IC50 (PV-1 (poliovirus)) was 1.7 mg/L (≈ 4.7 µM) and the IC50 (CS-21C (Coxsackie virus)) was 0.44 mg/L (≈ 1.22 µM).
